Test results from patent US7592351B2, “Substituted imidazo[1,2-a]pyridine compounds and pharmaceutical preparations containing substituted imidazo[1,2-a]pyridine compounds” (Gruenenthal GmbH, priority 2004, dated 2009).
Counter-ions that a name gives are not always drawn. Like-named read-outs stand apart in the source and are kept apart here.

Experiments:
[1] = target: T1, vanilloid receptor VR1 (capsaicin receptor) (Rattus norvegicus, UniProt O35433); assay: Determination of affinity for vanilloid receptor VR1 ([3H] resiniferatoxin binding, rat spinal cord membranes); parameters: species or system Sprague Dawley rats; conditions: for inhibition at 10 µM: method (a), read-out: % VR1 binding % inhibition at 10 μM [2]
T1 construct: isolated from the spinal cord of male Sprague Dawley rats (breeder: Charles River Deutschland, 32699 Extertal) and used for preparation of the membrane; from tissue; host or cells: rat spinal cord (cervical region and one third of the thoracic region) membranes
T1 sequence (O35433 whole entry): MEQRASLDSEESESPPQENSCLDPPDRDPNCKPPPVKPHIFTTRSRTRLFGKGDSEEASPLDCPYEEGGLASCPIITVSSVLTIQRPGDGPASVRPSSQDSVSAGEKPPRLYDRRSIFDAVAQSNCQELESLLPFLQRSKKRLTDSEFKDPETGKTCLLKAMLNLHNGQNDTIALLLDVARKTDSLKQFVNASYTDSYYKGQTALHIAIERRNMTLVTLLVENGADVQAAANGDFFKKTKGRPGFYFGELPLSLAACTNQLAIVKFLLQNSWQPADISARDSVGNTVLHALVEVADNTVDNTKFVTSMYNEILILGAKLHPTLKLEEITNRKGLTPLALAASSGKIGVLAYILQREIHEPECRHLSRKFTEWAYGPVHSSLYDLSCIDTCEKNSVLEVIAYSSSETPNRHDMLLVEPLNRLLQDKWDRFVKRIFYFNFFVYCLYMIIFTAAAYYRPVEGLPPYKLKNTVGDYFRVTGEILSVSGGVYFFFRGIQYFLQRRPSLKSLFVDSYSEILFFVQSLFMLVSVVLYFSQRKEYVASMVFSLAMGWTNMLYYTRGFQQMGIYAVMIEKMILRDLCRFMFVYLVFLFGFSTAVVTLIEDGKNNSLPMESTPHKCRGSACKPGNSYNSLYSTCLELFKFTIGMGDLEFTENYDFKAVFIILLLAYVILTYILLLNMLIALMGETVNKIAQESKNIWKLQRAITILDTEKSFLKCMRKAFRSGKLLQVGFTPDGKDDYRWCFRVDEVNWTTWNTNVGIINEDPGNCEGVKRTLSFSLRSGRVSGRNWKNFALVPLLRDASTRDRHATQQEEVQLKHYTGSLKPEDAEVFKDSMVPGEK
Description: This method was developed on the basis of the publication by Acs et al., J. Neurochem. 65, 301-308 (1995). The corresponding description is hereby introduced as a reference and is deemed to be part of the disclosure.
• Sprague Dawley rats weighing between 150-300 g • (breeder: Charles River Deutschland, 32699 Extertal, Germany) • HEPES (item no. H-3375, SIGMA) • NaCl (item no. 6400.1000; Merck) • KCl (item no.: 4936.1000; Merck) • HCl (item no.: 1.00317; Merck) • [^3H] resiniferatoxin ([^3H] RTX) (item no.: NET-1132, Perkin-Elmer) • Resiniferatoxin (RTX, cold) (item no.: 550-179-M001, Alexis) • D-Glucose (item no.: 1.08337.1000, Merck) • Sucrose (item no.: S-9378, Sigma) • α1-acid glycoprotein (item no.: G-3643, Sigma) • BSA (bovine serum albumin, item no.: A-2153, Sigma) • GF/B filter mats (Brandel Inc., cat. no. FP 100, size: 2¼″×12¼″)
Buffer: (Concentration values in brackets in each case in mM)
• HEPES (10); KCl (5); NaCl (5.8); CaCl (0.75); MgCl (2.0); D-glucose (12); • sucrose (137). The pH value is adjusted at room temperature using 20% strength HCl. B. Preparation of Membranes
The cervical region and one third of the following thoracic region is isolated from the spinal cord of male Sprague Dawley rats (breeder: Charles River Deutschland, 32699 Extertal) and used for preparation of the membrane. After the combined tissue is weighed, it is homogenized in ice-cooled buffer of the above-stated composition. 20 ml of buffer were used per 1 g of tissue (1:20 weight/volume). Homogenisation performed with a homogeniser from Kinematica, model Polytron PT-3000 with PT-DA-3012/2 drive unit. The spinal cord tissue is disrupted within 60 seconds in the cold buffer with ice cooling at a rotational speed of 6000 rpm. The material is then centrifuged for 10 minutes at 1000 g and +4° C. and the resultant precipitate discarded. The […] in the same volume of buffer of the above-stated composition. The material is then centrifuged for 40 minutes at 48,000 g and +4° C. and the supernatant discarded. The resultant precipitate is resuspended in 30 ml of buffer of the above-stated composition and used in this form in the vanilloid receptor (VR1) assay.
Incubation is performed in the water bath for one hour at 37° C. The samples are then placed in an ice bath for 15 minutes. In order to minimise nonspecific adsorption of the RTX, 100 μg of α1-acid glycoprotein (in 50 μl of buffer) are added to each incubation tube. The samples are then thoroughly mixed on a vortex shaker and left to stand for 10 minutes. The batches are then filtered with the assistance of the model M-24R “Brandel Cell Harvester” through a GF/B glass fiber filter mat which has been presoftened in tris buffer. The filter is then rinsed through 3 times with 4 ml portions of ice-cold HEPES buffer of the above-stated composition for each sample. The filters are transferred into scintillation counter vessels, each is combined with a 10 ml portion of “Ready Protein” scintillating material, and the vessels are closed with screw caps. The vessels are shaken on the vortex shaker and left to stand for at least 15 hours in the fume cupboard. The samples are then measured on the β-counter (model 1409 Wallac, Perkin Elmer, 63110 Rogau-Jügesheim, Germany).

[2] = target: T2, cannabinoid receptor 1 (CB1) (Rattus norvegicus, UniProt P20272); assay: Determination of affinity for cannabinoid receptor 1 (CB1) ([3H] WIN55,212-2 binding, rat cerebellum membranes); parameters: species or system Sprague Dawley rats; conditions: method (c)
T2 construct: Tissue: rat cerebellum; from tissue; host or cells: rat cerebellum membranes
T2 sequence (P20272 whole entry): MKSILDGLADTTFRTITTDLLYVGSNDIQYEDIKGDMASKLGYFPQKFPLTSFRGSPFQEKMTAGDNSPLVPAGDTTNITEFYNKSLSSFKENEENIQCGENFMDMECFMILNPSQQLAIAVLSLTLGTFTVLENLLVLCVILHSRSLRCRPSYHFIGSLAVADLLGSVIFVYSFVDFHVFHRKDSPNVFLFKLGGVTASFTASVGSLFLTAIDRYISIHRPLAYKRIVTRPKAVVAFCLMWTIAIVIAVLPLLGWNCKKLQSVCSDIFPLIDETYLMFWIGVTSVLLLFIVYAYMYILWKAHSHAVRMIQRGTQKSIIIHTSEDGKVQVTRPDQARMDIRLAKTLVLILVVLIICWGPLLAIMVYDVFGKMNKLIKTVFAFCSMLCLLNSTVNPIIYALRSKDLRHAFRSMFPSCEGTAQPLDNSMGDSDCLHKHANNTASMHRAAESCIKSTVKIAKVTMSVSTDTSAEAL
Description: (c) Determination of Affinity for Cannabinoid Receptor 1 (CB1)
The method was developed on the basis of the publication of D'Ambra et al, J. Med. Chem. 35, 124-135 (1992), but at variance therewith the ligand stated below is used. The disclosure of this article is hereby incorporated by reference.
• Sprague Dawley rats weighing between 150-350 g • (breeder: Charles River Deutschland, 32699 Extertal, Germany) • Ligand: [^3H] WIN55, 212-2; Perkin Elmer, item. no. NET 1058 • Ligand cold: WIN 55, 212-2 mesylate; Tocris; item. no. 1038 • HEPES: Sigma, item no. H-3375 • BSA: Sigma, item no. A-2153 • GF/B filter mats (Brandel Inc., cat. no. FP 100, size 2¼″×12¼″) • Ready Protein scintillating material (item no. 586604, Beckmann, 85716 Unterschlei ? heim) • Tissue: rat cerebellum • Tissue & incubation buffer: 20 mM HEPES pH 7.0. • Filtration buffer: 20 mM HEPES pH 7.0 containing 0.5 mg of BSA/ml which prevents adsorption. • Filter mat softening buffer: 20 mM HEPES pH 7.0 containing 5 mg of BSA/ml. B. Preparation of Cerebellum:
20 ml of ice-cooled buffer are used per 1 g of brain tissue. The brain tissue is disrupted within 30 seconds in the cold buffer with ice cooling at a rotational speed of 6000 rpm using a homogeniser from Kinematica, model Polytron PT-3000 with PT-DA-3012/2 drive unit. The resultant homogenate is then diluted with cold buffer to a ratio of 100 ml/g of tissue. Centrifugation is then performed for 15 minutes at 49,000 g and 4° C. Once centrifugation is complete, the supernatants are decanted and the precipitates resuspended in fresh, cold buffer. Acceptable suspension of the pellets is obtained at only 1000 rpm in the homogeniser with ice cooling and a processing time of at most 60 seconds. This last centrifugation step is repeated twice more (in each case washed with 20 mM HEPES pH 7.0). The precipitated is then suspended with buffer in a ratio of 1:120 (weight/volume).
Incubation is performed for 90 minutes at room temperature, i.e. 25° C. The batches are then rapidly suction filtered with the assistance of the Brandel Cell Harvester (model M-24-R, Adi Hassel, 80809 Munich, Germany) through GF/B filter mats, which have previously been softened in HEPES buffer pH 7.0 containing 5 mg/ml of BSA, and rewashed with 20 ml of filtration buffer (ice-cooled). After transferring the filters into scintillation vials and adding a 10 ml portion of scintillation liquid (Ready Protein) to each and then leaving to stand for 15 hours, the samples are measured in the scintillation counter (Perkin Elmer, model Wallac 1409).

[3] = target: T3, vanilloid receptor (VR1) (Rattus norvegicus, UniProt O35433); assay: Functional investigations on vanilloid receptor (VR1): Ca2+ influx FLIPR assay in CHO K1 cells stably transfected with the VR1 gene; assay type: cell-based, rats; conditions: for inhibition at 10 µM: CHO-K1, read-out: % Inhibition [1]; for % Activation [1]: method (b), substance 10 μM, relative to Ca2+ signal after 10 μM capsaicin, means from 4–5 measurements
T3 construct: expressed in transfected cells; host or cells: CHO K1 cells (ECACC)
T3 sequence (O35433 whole entry): as the sequence (O35433 whole entry) above
Description: (b) Functional Investigations on Vanilloid Receptor (VR1)
The agonistic or antagonistic action of the substances to be investigated on the vanilloid receptor (VR1) may be determined with the following assay. According to this assay, the influx of Ca^2+ through the channel is quantified with the assistance of a Ca^2+-sensitive dye (type Fluo4, Molecular Probes Europe BV, Leiden, Netherlands) in a Fluorescent Imaging Plate Reader (FLIPR, Molecular Devices, Sunnyvale, USA).
Chinese hamster ovary cells (CHO K1 cells, European Collection of Cell Cultures (ECACC), Great Britain) are stably transfected with the VR1 gene. For functional investigations, these cells are plated out onto poly-D-lysine-coated, black 96 well plates with a clear bottom (BD Biosciences, Heidelberg, Germany) at a density of 25,000 cells/well. The cells are incubated overnight at 37° C. and 5% CO2 in a culture medium (Ham's Nutrient Mixture F12, 10 vol. % FCS (foetal calf serum), 18 μg/mL L-proline). On the following day, the cells are incubated with Fluo4 (Fluo4 2 μM, Pluronic F127 0.01 vol. %, Molecular Probes in HBSS (Hank's buffered saline solution), Gibco Invitrogen GmbH, Karlsruhe, Germany) for 30 minutes at 37° C. The plates are then washed 3 times with HBSS buffer and, after a further 15 minutes' incubation at room temperature, used for Ca^2+ measurement in the FLIPR. Ca^2+-dependent fluorescence is here measured before and after addition of the substances to be investigated (wavelength λex=488 nm, λem=540 nm). Quantification proceeds by measuring the highest fluorescence intensity (FC, fluorescence counts) over time.
The FLIPR protocol comprises 2 additions of substance. […] The percentage inhibition in comparison with the maximum achievable inhibition with 10 μM capsazepine is calculated.

| SMILES | IC50 [1] [µM] | inhibition at 10 µM [2] [%] | inhibition at 10 µM [3] [%] | other results |
| --- | --- | --- | --- | --- |
| CCCCC/C=C\C/C=C\C/C=C\C/C=C\CCCC(=O)NCc1ccc(O)c(OC)c1 [Arvanil] | – | – | – | IC50 ([1]; [3H] RTX 100 pM, rat spinal cord membranes, comparison substances, read-out: IC50 (VR-1 receptor affinity, reference data)): 8.9 µM |
| COc1cc(CNC(=O)CCCCCCC(C)C)ccc1O [Dihydrocapsaicin] | 2.72 | – | – | – |
| Cc1cc(C)n2c(NC(C)(C)CC(C)(C)C)c(-c3ccsc3)nc2c1 [Example 1, (5,7-Dimethyl-2-thiophen-3-yl-imidazo[1,2-a]pyridin-3-yl)-(1,1,3,3-tetramethylbutyl)-amine hydrochloride] | – | 43 | – | inhibition at 10 µM [1]: 42.5% |
| CC(C)(C)CC(C)(C)Nc1c(-c2ccsc2)nc2ccccn12 [Example 2, (1,1,3,3-Tetramethylbutyl)-(2-thiophen-3-yl-imidazo-[1,2-a]pyridin-3-yl)amine hydrochloride] | – | 47 | 32.2 | inhibition at 10 µM [1]: 36% |
| Cc1ccn2c(NC(C)(C)CC(C)(C)C)c(-c3ccsc3)nc2c1.Cl [Example 3, (7-Methyl-2-thiophene-3-yl-imidazo[1,2-a]pyridin-3-yl)-(1,1,3,3-tetramethylbutyl)-amine hydrochloride] | – | 35.5 | 65 | % Activation [1] [3]: 30.1% |
| CC(C)(C)CC(C)(C)Nc1c(-c2ccoc2)nc2ccccn12 [Example 4, (2-Furan-3-yl-imidazo[1,2-a]pyridin-3-yl)-(1,1,3,3-tetramethylbutyl)amine hydrochloride] | – | 35 | 44.1 | – |
| Cc1ccn2c(NC(C)(C)CC(C)(C)C)c(-c3ccoc3)nc2c1.Cl [Example 5, (2-Furan-3-yl-7-methyl-imidazo[1,2-a]pyridin-3-yl)-(1,1,3,3-tetramethylbutyl)amine hydrochloride] | – | 32.7 | 80.7 | % Activation [1] [3]: 32.4% |
| CC1(C)C[C@H]2C=C(C=O)[C@]3(C=O)C[C@]3(C)[C@H]2C1 [Isovelleral] | 7.22 | – | – | – |
| C=C(C)[C@]12C[C@@H](C)[C@@]34O[C@](Cc5ccccc5)(O[C@@H]1[C@@H]3C=C(COC(=O)Cc1ccc(O)c(OC)c1)C[C@]1(O)C(=O)C(C)=C[C@@H]41)O2 [Resiniferatoxin] | 0.00021 | – | – | – |
